This note sets out measurements from US12637471B2, “Heterocyclic compounds, compositions, methods of preparation and uses thereof” (Organon R&D Finland Ltd, priority 2021, dated 2026).

Holding throughout (assay type): biochemical
Assay [1] addresses T1, Recombinant human aldo-keto reductase family 1 member C2 (AKR1C2) protein (Homo sapiens, UniProt P52895).
T1 construct: made in house; host or cells: Sf-9 insect cells (baculovirus)
T1 sequence (P52895 1-323): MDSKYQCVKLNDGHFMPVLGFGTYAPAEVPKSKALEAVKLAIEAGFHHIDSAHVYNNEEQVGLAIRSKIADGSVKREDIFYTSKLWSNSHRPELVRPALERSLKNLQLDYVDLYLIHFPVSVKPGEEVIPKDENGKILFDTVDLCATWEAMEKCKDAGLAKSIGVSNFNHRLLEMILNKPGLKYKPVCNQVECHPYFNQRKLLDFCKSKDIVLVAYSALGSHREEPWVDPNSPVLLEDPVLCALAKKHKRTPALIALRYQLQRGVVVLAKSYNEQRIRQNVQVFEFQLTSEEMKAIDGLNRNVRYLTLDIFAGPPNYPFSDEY
Nature of the assay: Inhibition of the aldo-keto reductase family 1 member C2, 3H-dihydrotestosterone conversion. The settings on record: inhibitor at 10 μM. A digest of the protocol:
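Sf-9-expressed enzyme (13.6 nM) incubated 45 min at 37 °C in 20 mM KH2PO4 pH 7.4 with 1 mM NADPH, 6.25 nM [3H]dihydrotestosterone and 10 μM compound (1% DMSO). After TCA stop, substrate and 5α-androstane-3α,17β-diol resolved by UPLC with radio-detection; inhibition from percent conversion.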

The target in assay [2] is T2, 17β-Hydroxysteroid Dehydrogenase Type 2 Enzyme (17β-HSD2) (Homo sapiens, UniProt P37059).
T2 construct: made in house; host or cells: Sf-9 insect cells (baculovirus)
T2 sequence (P37059 1-387): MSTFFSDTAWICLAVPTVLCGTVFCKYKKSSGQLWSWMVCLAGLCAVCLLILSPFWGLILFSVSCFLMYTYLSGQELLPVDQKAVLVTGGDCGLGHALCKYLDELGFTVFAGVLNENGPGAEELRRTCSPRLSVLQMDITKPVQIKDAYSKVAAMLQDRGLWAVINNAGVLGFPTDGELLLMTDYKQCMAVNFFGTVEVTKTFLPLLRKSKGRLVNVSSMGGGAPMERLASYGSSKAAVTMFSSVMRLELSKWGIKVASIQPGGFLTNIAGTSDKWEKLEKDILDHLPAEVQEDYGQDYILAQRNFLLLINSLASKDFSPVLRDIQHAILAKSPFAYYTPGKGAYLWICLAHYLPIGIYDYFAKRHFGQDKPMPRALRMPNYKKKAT
Nature of the assay: Inhibition of the 17β-hydroxysteroid dehydrogenase type 2 enzyme, 3H-testosterone conversion. To be noted: inhibitor at 10 μM. A digest of the protocol:
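Recombinant human 17β-HSD2 (Sf-9/baculovirus; 105 nM) incubated with 56.25 nM ³H-testosterone and 1 mM NAD in 20 mM KH2PO4 pH 8.5, 1 mM EDTA, 1% DMSO, 30 min at RT, inhibitor 10 μM. Reaction stopped with TCA; conversion to ³H-androstenedione by radio-UPLC gives percent inhibition.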

Assay [3] concerns the target T3, Recombinant human AKR1C3 (17β-HSD5) protein (Homo sapiens, UniProt P42330).
T3 construct: made in house; host or cells: E. coli
T3 sequence (P42330 1-323): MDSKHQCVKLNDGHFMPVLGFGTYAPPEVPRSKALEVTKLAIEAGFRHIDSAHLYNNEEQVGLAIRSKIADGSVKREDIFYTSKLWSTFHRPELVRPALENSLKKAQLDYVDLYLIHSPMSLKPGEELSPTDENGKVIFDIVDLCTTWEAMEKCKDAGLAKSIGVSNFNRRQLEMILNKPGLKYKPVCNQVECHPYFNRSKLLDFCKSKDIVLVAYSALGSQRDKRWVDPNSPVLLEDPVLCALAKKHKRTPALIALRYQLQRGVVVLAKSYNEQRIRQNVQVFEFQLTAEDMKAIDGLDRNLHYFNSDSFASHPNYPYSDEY
Nature of the assay: Inhibition of AKR1C3 (17β-hydroxysteroid dehydrogenase type 5) enzyme, fluorescence assay. The settings on record: inhibitor at 500 nM. The method in brief: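 E. coli-expressed human AKR1C3 (27 nM) in 20 mM KH2PO4, 1 mM EDTA, pH 7.4, with 1 μM pyranoquinolinone ketone substrate, 1 mM NADPH and inhibitor at 500 nM, 1% DMSO, 60–120 min at RT. Fluorescent alcohol product (ex 420/em 510 nm) quantified against standards; inhibition derived from conversion percentages.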

The structures appear in SMILES notation.

As to `N#CC(=C1CCN(C(=O)N2CCC(CO)CC2)CC1)c1cccc2[nH]ncc12` [Compound 49, 2-(1-(4-(hydroxymethyl)piperidine-1-carbonyl)piperidin-4-ylidene)-2-(1H-indazol-4-yl)acetonitrile], the figures for the inhibition at 10 µM in assay [1] and in assay [2] were 6% and 22%, respectively. Also, the inhibition at 0.5 µM in assay [3] stood at 98%.

Turning to `N#CC(=C1CCN(C(=O)N2CCc3[nH]ncc3C2)CC1)c1cc(F)cc(F)c1` [Compound 116, 2-(3,5-difluorophenyl)-2-(1-(4,5,6,7-tetrahydro-1H-pyrazolo[4,3-c]pyridine-5-carbonyl)piperidin-4-ylidene)acetonitrile], the inhibition at 10 µM in assay [1] turned out to be 26%; in assay [2] it was 12%. For the same compound, in assay [3], the inhibition at 0.5 µM stood at 98%.

For `N#CC(=C1CCN(C(=O)N2CCc3[nH]cnc3C2)CC1)c1ccc(F)cc1` [Compound 24, 2-(4-fluorophenyl)-2-(1-(4,5,6,7-tetrahydro-1H-imidazo[4,5-c]pyridine-5-carbonyl)piperidin-4-ylidene)acetonitrile], the results for the inhibition at 10 µM in assay [1] and in assay [2] were 8% and 11%, respectively. Besides, in assay [3], the inhibition at 0.5 µM was 96%.

In the case of `N#CC(=C1CCN(C(=O)N2CCn3cncc3C2)CC1)c1ccc(Cl)s1` [Compound 121, 2-(5-chlorothiophen-2-yl)-2-(1-(5,6,7,8-tetrahydroimidazo[1,5-a]pyrazine-7-carbonyl)piperidin-4-ylidene)acetonitrile], the inhibition at 10 µM in assay [1] is 32%; in assay [2], -7%. Also, in assay [3], the inhibition at 0.5 µM was found to be 99%.

Regarding `N#CC(=C1CCN(C(=O)N2CCc3sccc3C2)CC1)c1ccc(F)c(F)c1` [Compound 35, 2-(3,4-difluorophenyl)-2-(1-(4,5,6,7-tetrahydrothieno[3,2-c]pyridine-5-carbonyl)piperidin-4-ylidene)acetonitrile], the inhibition at 10 µM was determined as 27% in assay [1] and 28% in assay [2]. Besides, the inhibition at 0.5 µM in assay [3] was 96%.

Take `N#CC(=C1CCN(C(=O)N2CCc3nocc3C2)CC1)c1cccc(Cl)c1` [Compound 89, 2-(3-chlorophenyl)-2-(1-(4,5,6,7-tetrahydroisoxazolo[4,3-c]pyridine-5-carbonyl)piperidin-4-ylidene)acetonitrile]: the figures for the inhibition at 10 µM in assay [1] and in assay [2] were 18% and 15%, respectively. The inhibition at 0.5 µM in assay [3] was found to be 98%.

In the case of `Cn1ncc2cccc(C(C#N)=C3CCN(C(=O)N4CCc5[nH]ncc5C4)CC3)c21` [Compound 119, 2-(1-methyl-1H-indazol-7-yl)-2-(1-(4,5,6,7-tetrahydro-1H-pyrazolo[4,3-c]pyridine-5-carbonyl)piperidin-4-ylidene)acetonitrile], the inhibition at 10 µM came out at 6% in assay [1] and 15% in assay [2]. Further, the inhibition at 0.5 µM in assay [3] came out at 99%.

For the compound `N#CC(=C1CCN(C(=O)N2CCC(CCO)CC2)CC1)c1ccc(F)cc1` [Compound 97, 2-(4-fluorophenyl)-2-(1-(4-(2-hydroxyethyl)piperidine-1-carbonyl)piperidin-4-ylidene)acetonitrile], the inhibition at 10 µM in assay [1] and in assay [2] was 9% throughout. In assay [3], the inhibition at 0.5 µM is 96%.

On to `CC(=O)n1ncc2c(C(C#N)=C3CCN(C(=O)N4CCc5nocc5C4)CC3)cccc21` [Compound 93, 2-(1-acetyl-1H-indazol-4-yl)-2-(1-(4,5,6,7-tetrahydroisoxazolo[4,3-c]pyridine-5-carbonyl)piperidin-4-ylidene)acetonitrile], for which the inhibition at 10 µM in assay [1] was 11%; in assay [2], 23%. The inhibition at 0.5 µM in assay [3] came to 98%.

`CCOC1CCN(C(=O)N2CCC(=C(C#N)c3ccc(C(F)(F)F)cc3)CC2)CC1` [Compound 128, 2-(1-(4-ethoxypiperidine-1-carbonyl)piperidin-4-ylidene)-2-(4-(trifluoromethyl)phenyl) acetonitrile]: the values for the inhibition at 10 µM in assay [1] and in assay [2] were 2% and 17%, respectively. Besides, in assay [3], the inhibition at 0.5 µM is 93%.

Regarding `N#CC(=C1CCN(C(=O)N2CCn3ncnc3C2)CC1)c1ccc(OC(F)(F)F)cc1` [Compound 167, 2-(1-(5,6,7,8-tetrahydro-[1,2,4]triazolo[1,5-a]pyrazine-7-carbonyl)piperidin-4-ylidene)-2-(4-(trifluoromethoxy)phenyl)acetonitrile], the inhibition at 10 µM in assay [1] is 7%; in assay [2], -1%. Moreover, the inhibition at 0.5 µM in assay [3] was determined as 97%.

In the case of `N#CC(=C1CCN(C(=O)N2CCn3ncnc3C2)CC1)c1cc(F)cc(F)c1` [Compound 166, 2-(3,5-difluorophenyl)-2-(1-(5,6,7,8-tetrahydro-[1,2,4]triazolo[1,5-a]pyrazine-7-carbonyl)piperidin-4-ylidene)acetonitrile], the inhibition at 10 µM in assay [1] is 13%; in assay [2], 2%. The inhibition at 0.5 µM in assay [3] came out at 96%.

With `COC1CCN(C(=O)N2CCC(=C(C#N)c3ccc(C(F)(F)F)cc3)CC2)CC1` [Compound 146, 2-(1-(4-methoxypiperidine-1-carbonyl)piperidin-4-ylidene)-2-(4-(trifluoromethyl)phenyl)acetonitrile], the inhibition at 10 µM is 2% in assay [1] and 15% in assay [2]. In addition, in assay [3], the inhibition at 0.5 µM is 100%.

On to `CN(C(=O)N1CCC(=C(C#N)c2ccc(Cl)cc2)CC1)C1COC1` [Compound 169, 4-((4-chlorophenyl)(cyano)methylene)-N-methyl-N-(oxetan-3-yl)piperidine-1-carboxamide], for which the inhibition at 10 µM is 7% in assay [1] and -2% in assay [2]. Besides, in assay [3], the inhibition at 0.5 µM is 95%.

As to `N#CC(=C1CCN(C(=O)N2CCc3nocc3C2)CC1)c1ccc(F)cn1` [Compound 84, 2-(5-fluoropyridin-2-yl)-2-(1-(4,5,6,7-tetrahydroisoxazolo[4,3-c]pyridine-5-carbonyl)piperidin-4-ylidene)acetonitrile], the inhibition at 10 µM amounted to 6% in assay [1] and 23% in assay [2]. Also, the inhibition at 0.5 µM in assay [3] came out at 98%.

As to `N#CC(=C1CCN(C(=O)N2CCC(O)CC2)CC1)c1ccc(F)cc1F` [Compound 42, 2-(2,4-difluorophenyl)-2-(1-(4-hydroxypiperidine-1-carbonyl)piperidin-4-ylidene)acetonitrile], the inhibition at 10 µM came out at 11% in assay [1] and 10% in assay [2]. Moreover, in assay [3], the inhibition at 0.5 µM was found to be 96%.

Consider `N#CC(=C1CCN(C(=O)N2CCc3[nH]ncc3C2)CC1)c1ccc(F)cc1` [Compound 25, 2-(4-fluorophenyl)-2-(1-(4,5,6,7-tetrahydro-1H-pyrazolo[4,3-c]pyridine-5-carbonyl)piperidin-4-ylidene)acetonitrile], for which the results for the inhibition at 10 µM in assay [1] and in assay [2] were 28% and 27%, respectively. In assay [3], the inhibition at 0.5 µM was 98%.

As to `CC(O)C1CCN(C(=O)N2CCC(=C(C#N)c3ccc(OC(F)(F)F)cc3)CC2)CC1` (stereo not drawn) [Compound 124, 2-(1-(4-(1-hydroxyethyl)piperidine-1-carbonyl)piperidin-4-ylidene)-2-(4-(trifluoromethoxy)phenyl)acetonitrile], the inhibition at 10 µM in assay [1] was 4%; in assay [2] it was 9%. Besides, in assay [3], the inhibition at 0.5 µM is 91%.

Usually inhibition stands for the change of the read-out against control, counted positive when it falls.
